According to PMC9232112 (Science Advances, 2022):

Tests used:
measles virus polymerase = details: equivalent measles virus RdRP assay; cited from earlier work
recRSV-mKate = assay: microbe, parasite or virus in culture; format: cell-based; details: human respiratory syncytial virus, read-out: EC50, apical RSV shedding

| Structure (SMILES) | phosphodiester bond formation (measles virus polymerase) | EC50 (recRSV-mKate) [nM] |
| --- | --- | --- |
| Cn1nc(C(F)(F)F)cc1C(=O)Nc1ccc(S(=O)(=O)N2CCCC[C@H]2CCN2CCOCC2)cc1 [ERDRP-0519] | completely blocks all phosphodiesterbond formation | – |
| O=c1nc(NO)ccn1[C@@H]1O[C@H](CO)[C@@H](O)[C@H]1O [NHC, N^4-hydroxycytidine] | – | 50 |
